Measured values reported in ChEMBL document CHEMBL1155406, “Synthesis and chain-dependent antifungal activity of long-chain 2H-azirine-carboxylate esters related to dysidazirine” (Bioorg Med Chem Lett, 2010).
The source made the active and inactive calls. No cut-off for these calls is given here.

How the values were obtained:
Candida albicans [1] = assay: Antifungal activity against fluconazole-resistant Candida albicans UCD-FRI by broth microdilution method; format: functional, organism-based
Candida albicans [2] = assay: Antifungal activity against Candida albicans ATCC 14503 by broth microdilution method; format: functional, organism-based
Candida albicans [3] = assay: Antifungal activity against fluconazole-resistant Candida albicans 96-489 by broth microdilution method; format: functional, organism-based
Nakaseomyces glabratus [4] = assay: Antifungal activity against Candida glabrata by broth microdilution method; format: functional
Pichia kudriavzevii [5] = assay: Antifungal activity against fluconazole-resistant Candida krusei by broth microdilution method; format: functional, organism-based
Cryptococcus neoformans [6] = assay: Antifungal activity against Cryptococcus neoformans var. grubii by broth microdilution method; format: functional, organism-based
Cryptococcus gattii [7] = assay: Antifungal activity against Cryptococcus neoformans var. gatti by broth microdilution method; format: functional, organism-based; settings: Cryptococcus bacillisporus
Candida albicans [8] = assay: Antifungal activity against fluconazole-resistant Candida albicans UCD-FRI at 64 ug by broth microdilution method; format: functional, organism-based
Candida albicans [9] = assay: Antifungal activity against Candida albicans ATCC 14503 at 64 ug by broth microdilution method; format: functional, organism-based
Candida albicans [10] = assay: Antifungal activity against fluconazole-resistant Candida albicans 96-489 at 64 ug by broth microdilution method; format: functional, organism-based
Nakaseomyces glabratus [11] = assay: Antifungal activity against Candida glabrata at 64 ug by broth microdilution method; format: functional, organism-based
Pichia kudriavzevii [12] = assay: Antifungal activity against fluconazole-resistant Candida krusei at 64 ug by broth microdilution method; format: functional, organism-based
Cryptococcus neoformans [13] = assay: Antifungal activity against Cryptococcus neoformans var. grubii at 64 ug by broth microdilution method; format: functional, organism-based
Cryptococcus gattii [14] = assay: Antifungal activity against Cryptococcus neoformans var. gatti at 64 ug by broth microdilution method; format: functional, organism-based; settings: Cryptococcus bacillisporus
HCT-116 = assay: Cytotoxicity against human HCT116 cells; format: cell-based

Row | Structure (SMILES) | Activity (Candida albicans [1]) | Activity (Candida albicans [2]) | Activity (Candida albicans [3]) | Activity (Nakaseomyces glabratus [4]) | Activity (Pichia kudriavzevii [5]) | Activity (Cryptococcus neoformans [6]) | Activity (Cryptococcus gattii [7]) | Activity (Candida albicans [8]) | Activity (Candida albicans [9]) | Activity (Candida albicans [10]) | Activity (Nakaseomyces glabratus [11]) | Activity (Pichia kudriavzevii [12]) | Activity (Cryptococcus neoformans [13]) | Activity (Cryptococcus gattii [14]) | Activity (HCT-116)
1 | CCCCC/C=C\C1=N[C@H]1C(=O)OC | inactive |  |  |  |  |  |  |  |  |  |  |  |  |  | 
2 | CCCCCCCCCCCCCC#CC1=N[C@H]1C(=O)OC | Active | Active | Active | Active | Active | Active | Active |  |  |  |  |  |  |  | 
3 | COC(=O)[C@H]1N=C1/C=C\CCCCCCCCCC=C(Br)Br |  |  |  |  |  |  |  | inactive | inactive | inactive | inactive | inactive | inactive | inactive | Active
4 | COC(=O)[C@H]1N=C1/C=C/CCCCCCCCCC=C(Br)Br |  |  |  |  |  |  |  | inactive | inactive | inactive | inactive | inactive | inactive | inactive | Active
5 | COC(=O)[C@H]1N=C1/C=C/CCCCCCCCC/C=C(/Cl)Br |  |  |  |  |  |  |  | inactive | inactive | inactive | inactive | inactive | inactive | inactive | Active
6 | COC(=O)[C@H]1N=C1/C=C\CCCCCCCCC/C=C(/Cl)Br |  |  |  |  |  |  |  | inactive | inactive | inactive | inactive | inactive | inactive | inactive | Active
7 | CCCCCCCCCCCCCCCC1=N[C@H]1C(=O)OC |  |  |  |  |  |  |  | inactive | inactive | inactive | inactive | inactive | inactive | inactive | 
8 | COC(=O)[C@@H]1N=C1/C=C\CCCCCCCCCCCC(C)(C)C |  |  |  |  |  |  |  | inactive | inactive | inactive | inactive | inactive | inactive | inactive | 
9 | CCCCCCCCCCCCC/C=C/[C@@H](O)[C@@H](N)CO [SPHINGOSINE] |  |  |  | 30 µg/mL |  |  |  |  |  |  |  |  |  |  | 
10 | CCCCCCCCCC/C=C\C1=N[C@H]1C(=O)OC | Active | Active | Active | Active | Active | Active | Active |  |  |  |  |  |  |  | 
11 | COC(=O)[C@H]1N=C1/C=C/CCCCCCCCCC=C(Cl)Cl |  |  |  |  |  |  |  | inactive | inactive | inactive | inactive | inactive | inactive | inactive | Active
